Test results taken from PMC11637378, “Optogenetic screening of MCT1 activity implicates a cluster of non-steroidal anti-inflammatory drugs (NSAIDs) as inhibitors of lactate transport” (PLOS ONE, 2024).

Assays:
parent strain (SAWy518) [1] = experiment: microbe, parasite or virus in culture; set-up: species or system Saccharomyces cerevisiae SAWy518; Off-target growth counter-screen, OD600 as per cent of untreated wells, strain lacking MCT1; details: 18.5 h; sheet Primary Screen - final;; off-target growth of parent strain, about 18 h
Description: Cells were grown for 18 hours prior to OD measurement. Fill represents manual compound grouping based on compound class or target. OD600 is reported in Tecan units. […] The drug library used in this study for the initial screen and rescreen was provided by the Small Molecule Screening Center at Princeton University, through a collaboration with Dr. Hahn Kim. […] Follow-up analysis (IC50 determinations) on library compounds was performed using compounds purchased from outside sources. […] Stocks were then diluted 100-fold into media containing 0.01 OD600 inoculation of yeast, to achieve the final concentrations listed. Where compounds were added manually (for example 10 μM AZD3965 addition) stock concentrations were diluted by a factor of 100-fold regardless of scale, resulting in a final concentration of 1% v/v DMSO which is well tolerated by yeast.

parent strain (SAWy518) [2] = tested on: parent strain (SAWy518)

Structure (SMILES) | viability at 10 µM (parent strain (SAWy518) [1]) [%] | OffScreen_percentage (parent strain (SAWy518) [2]) [percentage] | Offscreen_18hr (parent strain (SAWy518) [2]) | Offscreen_24hr (parent strain (SAWy518) [2]) | Offscreen_42hr (parent strain (SAWy518) [2]) | Read_percentage (parent strain (SAWy518) [2]) [percentage]
CCCc1c(-c2ccc(O)cc2)nn(-c2ccc(O)cc2)c1-c1ccc(O)cc1 | 99 | – | – | – | – | –
O=C1CC(c2ccc(O)cc2)Oc2ccccc21 (stereo not shown) | 90.8 | – | – | – | – | –
O=C(/C=C/c1ccc(O)cc1)c1ccccc1 [4-hydroxychalcone] | 104 | – | – | – | – | –
N#Cc1c(O)c2c(-c3ccc(-c4ccccc4O)cc3)csc2[nH]c1=O [A-769662] | 102 | 102.02 | 0.8233 | 0.9004 | 0.9609 | 102.02
CCOC(=O)[C@H](C)C[C@@H](Cc1ccc(-c2ccccc2)cc1)NC(=O)CCC(=O)O [AHU377] | 105 | 104.585 | 0.844 | 0.9243 | 0.9874 | 104.585
COc1ccc([C@@H](C)C(=O)c2ccc(O)cc2O)cc1 [Angolesin] | 95.7 | 95.7373 | 0.7726 | 0.8843 | 0.9388 | 95.7373
O=c1cc(-c2ccc(O)cc2)oc2cc(O)cc(O)c12 [Apigenin] | 96.1 | 96.0843 | 0.7754 | 0.8699 | 0.9646 | 96.0843
CC(C)(C)CC(C)(C)c1ccc(OCCOCC[N+](C)(C)Cc2ccccc2)cc1 [Benzethonium] | 95.2 | 95.2045 | 0.7683 | 0.892 | 0.9542 | 95.2045
COc1ccc(-c2coc3cc(O)cc(O)c3c2=O)cc1 [Biochanin A] | 98.1 | 98.1165 | 0.7918 | 0.8858 | 0.9431 | 98.1165
O=C(/C=C/c1ccc(O)cc1)CC(=O)/C=C/c1ccc(O)cc1 [Bisdemethoxycurcumin] | 99.4 | 99.4424 | 0.8025 | 0.8965 | 0.9569 | 99.4424
CCOc1nc2cccc(C(=O)OC(C)OC(=O)OC3CCCCC3)c2n1Cc1ccc(-c2ccccc2-c2nnn[nH]2)cc1 (stereo not shown) [Candesartan Cilextil] | 98.1 | 98.0917 | 0.7916 | 0.8922 | 0.95 | 98.0917
CC(C(=O)O)c1ccc2c(c1)[nH]c1ccc(Cl)cc12 (stereo not shown) [Carprofen] | 90.2 | 90.223 | 0.7281 | 0.8523 | 0.8964 | 90.223
CC(C)(Oc1ccc(C2CC2(Cl)Cl)cc1)C(=O)O (stereo not shown) [Ciprofibrate] | 92.4 | 92.3916 | 0.7456 | 0.866 | 0.9088 | 92.3916
C=CC(C1=CC(=O)C(OC)=CC1=O)c1ccc(O)cc1 (stereo not shown) [DALBERGIONE, 4-METHOXY-4'-HYDROXY-] | 102 | – | – | – | – | –
C=CC(C1=CC(=O)C=CC1=O)c1ccccc1 (stereo not shown) [Dalbergione] | 104 | 104.3 | 0.8417 | 0.9214 | 0.9762 | 104.3
O=C(O)c1ccc(-n2nc(-c3ccccc3O)nc2-c2ccccc2O)cc1 [Deferasirox] | 96 | 95.9727 | 0.7745 | 0.8724 | 0.9291 | 95.9727
COc1ccc2c(c1)OCc1c-2oc2cc(OC)ccc12 [Dehydrovariabilin] | 93.8 | 93.7794 | 0.7568 | 0.8766 | 0.938 | 93.7794
N#CC(c1ccc(Cl)cc1)c1c(Cl)cc(-n2ncc(=O)[nH]c2=O)cc1Cl (stereo not shown) [Diclazuril] | 92.7 | 92.7138 | 0.7482 | 0.8733 | 0.9299 | 92.7138
